The results in this text go back to ChEMBL document CHEMBL5291721, “A preclinical secondary pharmacology resource illuminates target-adverse drug reaction associations of marketed drugs” (Nat Commun, 2023).

The target of assay [1] is Acetylcholinesterase (Homo sapiens, UniProt P22303). In kind it is functional.
For assay [2], the target named is T1, Muscarinic acetylcholine receptor M1 (Homo sapiens, UniProt P11229).
T1 sequence (P11229 whole entry): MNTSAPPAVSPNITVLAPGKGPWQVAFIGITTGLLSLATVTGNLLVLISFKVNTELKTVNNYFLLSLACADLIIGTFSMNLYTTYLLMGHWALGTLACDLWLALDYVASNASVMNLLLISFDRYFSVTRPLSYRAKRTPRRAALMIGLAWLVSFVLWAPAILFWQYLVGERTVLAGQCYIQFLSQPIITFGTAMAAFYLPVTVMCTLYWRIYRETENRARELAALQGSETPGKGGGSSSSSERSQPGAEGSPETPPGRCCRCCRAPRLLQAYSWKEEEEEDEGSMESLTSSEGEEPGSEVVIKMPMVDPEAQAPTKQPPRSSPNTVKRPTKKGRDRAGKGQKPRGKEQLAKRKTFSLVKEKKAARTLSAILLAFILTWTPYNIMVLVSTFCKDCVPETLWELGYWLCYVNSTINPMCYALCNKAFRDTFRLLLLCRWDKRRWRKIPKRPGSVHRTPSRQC
In kind it is functional, cell-based.

Assay [3] has as its target D(3) dopamine receptor (Homo sapiens, UniProt P35462).
The target of assay [4] is Prothrombin (Homo sapiens, UniProt P00734). In kind it is functional.
The target in assay [5] is Gamma-aminobutyric acid receptor subunit alpha-1 (Rattus norvegicus, UniProt P62813).
For assay [6], the target named is Histamine H3 receptor (Homo sapiens, UniProt Q9Y5N1).
The target of assay [7] is T2, 5-hydroxytryptamine receptor 1A (Homo sapiens, UniProt P08908).
T2 sequence (P08908 whole entry): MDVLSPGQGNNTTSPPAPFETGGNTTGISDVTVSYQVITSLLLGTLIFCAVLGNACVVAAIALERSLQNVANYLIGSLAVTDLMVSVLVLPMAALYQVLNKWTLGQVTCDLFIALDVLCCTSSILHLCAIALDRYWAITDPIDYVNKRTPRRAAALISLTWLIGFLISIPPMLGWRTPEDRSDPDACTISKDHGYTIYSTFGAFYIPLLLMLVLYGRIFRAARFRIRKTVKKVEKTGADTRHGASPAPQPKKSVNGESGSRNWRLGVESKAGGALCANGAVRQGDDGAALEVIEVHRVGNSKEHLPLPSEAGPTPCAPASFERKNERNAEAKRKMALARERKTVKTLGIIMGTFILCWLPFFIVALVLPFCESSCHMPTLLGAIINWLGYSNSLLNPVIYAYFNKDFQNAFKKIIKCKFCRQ

Assay [8] deals with Voltage-gated inwardly rectifying potassium channel KCNH2 (Homo sapiens, UniProt Q12809). In kind it is functional.
Assay [9] has as its target cGMP-inhibited 3',5'-cyclic phosphodiesterase 3A (Homo sapiens, UniProt Q14432). The class given is functional.
Assay [10] addresses T3, Progesterone receptor (Homo sapiens, UniProt P06401).
T3 sequence (P06401 whole entry): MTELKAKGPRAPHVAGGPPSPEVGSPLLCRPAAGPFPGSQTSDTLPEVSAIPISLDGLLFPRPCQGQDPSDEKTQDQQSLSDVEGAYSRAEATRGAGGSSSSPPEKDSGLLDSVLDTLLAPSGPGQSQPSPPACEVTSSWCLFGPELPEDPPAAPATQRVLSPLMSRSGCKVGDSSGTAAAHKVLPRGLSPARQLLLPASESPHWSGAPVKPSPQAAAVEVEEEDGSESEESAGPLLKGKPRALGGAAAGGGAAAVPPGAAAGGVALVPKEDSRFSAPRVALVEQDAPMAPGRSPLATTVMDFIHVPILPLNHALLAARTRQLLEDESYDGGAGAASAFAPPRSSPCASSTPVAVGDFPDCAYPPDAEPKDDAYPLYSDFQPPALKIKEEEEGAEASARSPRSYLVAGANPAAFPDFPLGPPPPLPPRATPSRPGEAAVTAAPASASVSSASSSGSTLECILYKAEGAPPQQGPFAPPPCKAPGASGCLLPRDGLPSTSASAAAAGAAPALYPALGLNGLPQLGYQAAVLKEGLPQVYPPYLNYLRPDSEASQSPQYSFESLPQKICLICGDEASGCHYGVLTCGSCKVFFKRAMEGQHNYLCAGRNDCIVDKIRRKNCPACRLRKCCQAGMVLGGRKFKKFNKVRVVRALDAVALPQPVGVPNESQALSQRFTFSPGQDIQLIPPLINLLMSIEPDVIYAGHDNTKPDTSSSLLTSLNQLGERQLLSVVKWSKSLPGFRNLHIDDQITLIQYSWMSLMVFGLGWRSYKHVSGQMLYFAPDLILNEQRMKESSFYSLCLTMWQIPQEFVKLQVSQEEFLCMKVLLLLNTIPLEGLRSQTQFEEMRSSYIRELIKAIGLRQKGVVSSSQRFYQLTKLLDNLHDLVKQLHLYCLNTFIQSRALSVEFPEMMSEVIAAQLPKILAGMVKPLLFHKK

In assay [11] the target is Prostaglandin G/H synthase 1 (Homo sapiens, UniProt P23219). The class given is functional.
Assay [12] addresses Sodium-dependent dopamine transporter (Homo sapiens, UniProt Q01959).
In assay [13] the target is T4, Thromboxane A2 receptor (Homo sapiens, UniProt P21731).
T4 sequence (P21731 whole entry): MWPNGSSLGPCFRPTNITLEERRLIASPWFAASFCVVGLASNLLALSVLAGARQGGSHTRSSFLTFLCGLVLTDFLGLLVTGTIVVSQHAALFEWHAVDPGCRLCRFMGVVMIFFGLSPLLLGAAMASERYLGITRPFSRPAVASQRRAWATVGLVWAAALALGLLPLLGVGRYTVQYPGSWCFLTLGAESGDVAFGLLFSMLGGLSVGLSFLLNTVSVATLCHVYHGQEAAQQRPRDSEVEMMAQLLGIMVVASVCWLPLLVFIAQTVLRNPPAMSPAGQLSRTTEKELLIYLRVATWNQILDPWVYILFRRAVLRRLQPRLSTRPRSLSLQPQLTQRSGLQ
The class given is functional, cell-based.
Further: assay procedure not described here.

Sequence of Sodium-dependent dopamine transporter (Q01959 whole entry): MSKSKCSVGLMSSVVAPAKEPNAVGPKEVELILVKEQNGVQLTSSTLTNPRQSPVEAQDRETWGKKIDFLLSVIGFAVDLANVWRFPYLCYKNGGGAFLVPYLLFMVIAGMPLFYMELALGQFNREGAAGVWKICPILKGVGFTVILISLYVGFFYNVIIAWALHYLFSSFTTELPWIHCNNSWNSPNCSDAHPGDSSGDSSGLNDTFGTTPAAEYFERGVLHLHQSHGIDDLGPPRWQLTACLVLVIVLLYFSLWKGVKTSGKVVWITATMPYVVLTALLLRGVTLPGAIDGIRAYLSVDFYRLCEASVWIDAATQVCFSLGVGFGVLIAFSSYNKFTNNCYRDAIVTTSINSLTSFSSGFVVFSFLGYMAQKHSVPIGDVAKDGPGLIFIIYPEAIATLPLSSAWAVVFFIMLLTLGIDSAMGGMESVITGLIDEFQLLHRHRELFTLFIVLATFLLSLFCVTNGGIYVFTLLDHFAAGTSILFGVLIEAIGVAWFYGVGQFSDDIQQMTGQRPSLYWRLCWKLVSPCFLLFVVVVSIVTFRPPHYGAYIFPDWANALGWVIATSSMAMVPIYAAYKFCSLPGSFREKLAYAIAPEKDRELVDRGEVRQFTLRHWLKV
Sequence of Gamma-aminobutyric acid receptor subunit alpha-1 (P62813 whole entry): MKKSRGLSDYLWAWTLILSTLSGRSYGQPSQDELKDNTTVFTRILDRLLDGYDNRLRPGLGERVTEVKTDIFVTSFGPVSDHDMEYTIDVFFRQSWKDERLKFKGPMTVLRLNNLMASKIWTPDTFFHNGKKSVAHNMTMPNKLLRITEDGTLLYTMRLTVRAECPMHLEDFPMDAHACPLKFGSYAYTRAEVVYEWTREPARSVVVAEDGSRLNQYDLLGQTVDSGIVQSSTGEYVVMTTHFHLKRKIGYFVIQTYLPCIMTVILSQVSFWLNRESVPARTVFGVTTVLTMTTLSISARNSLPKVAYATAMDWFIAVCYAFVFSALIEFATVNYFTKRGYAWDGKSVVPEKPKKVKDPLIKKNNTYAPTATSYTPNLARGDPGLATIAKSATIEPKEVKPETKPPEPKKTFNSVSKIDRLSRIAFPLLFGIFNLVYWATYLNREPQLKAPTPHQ
Sequence of Acetylcholinesterase (P22303 whole entry): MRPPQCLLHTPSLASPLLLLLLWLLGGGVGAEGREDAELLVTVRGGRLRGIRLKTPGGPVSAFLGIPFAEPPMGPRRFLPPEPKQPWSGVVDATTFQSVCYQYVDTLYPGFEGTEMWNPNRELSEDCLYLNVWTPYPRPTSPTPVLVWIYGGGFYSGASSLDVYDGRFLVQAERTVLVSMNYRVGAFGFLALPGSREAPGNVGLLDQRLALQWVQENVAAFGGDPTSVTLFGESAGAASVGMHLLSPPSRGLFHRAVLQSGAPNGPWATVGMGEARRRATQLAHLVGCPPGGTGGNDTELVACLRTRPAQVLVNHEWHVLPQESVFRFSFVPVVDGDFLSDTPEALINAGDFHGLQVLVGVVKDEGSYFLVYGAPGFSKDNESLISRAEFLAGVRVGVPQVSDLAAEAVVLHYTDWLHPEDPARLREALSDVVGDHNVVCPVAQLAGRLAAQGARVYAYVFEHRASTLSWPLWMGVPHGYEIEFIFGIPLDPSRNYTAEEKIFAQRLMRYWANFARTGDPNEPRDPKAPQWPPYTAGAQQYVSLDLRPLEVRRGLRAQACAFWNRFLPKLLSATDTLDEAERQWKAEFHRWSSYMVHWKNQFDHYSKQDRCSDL
Sequence of cGMP-inhibited 3',5'-cyclic phosphodiesterase 3A (Q14432 whole entry): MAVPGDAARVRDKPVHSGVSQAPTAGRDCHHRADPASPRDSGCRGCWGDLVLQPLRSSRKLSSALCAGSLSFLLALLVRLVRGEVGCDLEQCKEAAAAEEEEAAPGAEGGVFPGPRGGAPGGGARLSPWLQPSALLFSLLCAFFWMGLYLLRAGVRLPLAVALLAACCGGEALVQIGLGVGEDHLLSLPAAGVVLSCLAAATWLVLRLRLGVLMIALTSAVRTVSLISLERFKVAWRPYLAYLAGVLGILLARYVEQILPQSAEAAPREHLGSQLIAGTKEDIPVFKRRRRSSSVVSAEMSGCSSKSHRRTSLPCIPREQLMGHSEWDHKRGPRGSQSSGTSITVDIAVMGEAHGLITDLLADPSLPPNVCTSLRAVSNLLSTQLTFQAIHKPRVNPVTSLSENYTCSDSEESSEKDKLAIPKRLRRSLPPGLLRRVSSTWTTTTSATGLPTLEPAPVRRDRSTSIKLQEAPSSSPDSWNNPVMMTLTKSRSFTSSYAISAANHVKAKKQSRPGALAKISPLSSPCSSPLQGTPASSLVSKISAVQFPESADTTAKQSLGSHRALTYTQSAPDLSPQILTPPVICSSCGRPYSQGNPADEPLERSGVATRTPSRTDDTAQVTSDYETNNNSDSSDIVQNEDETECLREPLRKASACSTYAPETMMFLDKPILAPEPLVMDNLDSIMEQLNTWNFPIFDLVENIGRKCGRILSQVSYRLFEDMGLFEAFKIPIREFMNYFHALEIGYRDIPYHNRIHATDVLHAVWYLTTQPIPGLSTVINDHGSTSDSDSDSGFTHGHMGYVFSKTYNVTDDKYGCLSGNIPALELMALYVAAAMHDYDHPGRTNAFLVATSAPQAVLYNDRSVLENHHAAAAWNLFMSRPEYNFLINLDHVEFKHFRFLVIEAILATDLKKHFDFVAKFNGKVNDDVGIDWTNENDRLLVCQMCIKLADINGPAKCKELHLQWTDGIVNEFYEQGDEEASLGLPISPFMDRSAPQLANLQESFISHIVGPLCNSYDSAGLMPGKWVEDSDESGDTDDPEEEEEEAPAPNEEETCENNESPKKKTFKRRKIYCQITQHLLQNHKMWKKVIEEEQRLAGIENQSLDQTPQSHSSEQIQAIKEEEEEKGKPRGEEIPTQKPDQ
Sequence of D(3) dopamine receptor (P35462 whole entry): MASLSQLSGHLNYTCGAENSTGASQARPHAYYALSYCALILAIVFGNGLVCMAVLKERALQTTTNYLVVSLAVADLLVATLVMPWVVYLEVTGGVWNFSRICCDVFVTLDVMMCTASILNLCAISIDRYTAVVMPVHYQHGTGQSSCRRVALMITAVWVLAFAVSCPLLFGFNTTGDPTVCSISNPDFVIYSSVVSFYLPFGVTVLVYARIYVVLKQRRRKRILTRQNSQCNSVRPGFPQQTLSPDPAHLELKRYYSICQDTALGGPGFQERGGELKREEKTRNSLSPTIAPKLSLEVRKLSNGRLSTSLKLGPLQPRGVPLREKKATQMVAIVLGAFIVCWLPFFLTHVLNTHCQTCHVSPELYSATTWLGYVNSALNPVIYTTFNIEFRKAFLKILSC
Sequence of Voltage-gated inwardly rectifying potassium channel KCNH2 (Q12809 whole entry): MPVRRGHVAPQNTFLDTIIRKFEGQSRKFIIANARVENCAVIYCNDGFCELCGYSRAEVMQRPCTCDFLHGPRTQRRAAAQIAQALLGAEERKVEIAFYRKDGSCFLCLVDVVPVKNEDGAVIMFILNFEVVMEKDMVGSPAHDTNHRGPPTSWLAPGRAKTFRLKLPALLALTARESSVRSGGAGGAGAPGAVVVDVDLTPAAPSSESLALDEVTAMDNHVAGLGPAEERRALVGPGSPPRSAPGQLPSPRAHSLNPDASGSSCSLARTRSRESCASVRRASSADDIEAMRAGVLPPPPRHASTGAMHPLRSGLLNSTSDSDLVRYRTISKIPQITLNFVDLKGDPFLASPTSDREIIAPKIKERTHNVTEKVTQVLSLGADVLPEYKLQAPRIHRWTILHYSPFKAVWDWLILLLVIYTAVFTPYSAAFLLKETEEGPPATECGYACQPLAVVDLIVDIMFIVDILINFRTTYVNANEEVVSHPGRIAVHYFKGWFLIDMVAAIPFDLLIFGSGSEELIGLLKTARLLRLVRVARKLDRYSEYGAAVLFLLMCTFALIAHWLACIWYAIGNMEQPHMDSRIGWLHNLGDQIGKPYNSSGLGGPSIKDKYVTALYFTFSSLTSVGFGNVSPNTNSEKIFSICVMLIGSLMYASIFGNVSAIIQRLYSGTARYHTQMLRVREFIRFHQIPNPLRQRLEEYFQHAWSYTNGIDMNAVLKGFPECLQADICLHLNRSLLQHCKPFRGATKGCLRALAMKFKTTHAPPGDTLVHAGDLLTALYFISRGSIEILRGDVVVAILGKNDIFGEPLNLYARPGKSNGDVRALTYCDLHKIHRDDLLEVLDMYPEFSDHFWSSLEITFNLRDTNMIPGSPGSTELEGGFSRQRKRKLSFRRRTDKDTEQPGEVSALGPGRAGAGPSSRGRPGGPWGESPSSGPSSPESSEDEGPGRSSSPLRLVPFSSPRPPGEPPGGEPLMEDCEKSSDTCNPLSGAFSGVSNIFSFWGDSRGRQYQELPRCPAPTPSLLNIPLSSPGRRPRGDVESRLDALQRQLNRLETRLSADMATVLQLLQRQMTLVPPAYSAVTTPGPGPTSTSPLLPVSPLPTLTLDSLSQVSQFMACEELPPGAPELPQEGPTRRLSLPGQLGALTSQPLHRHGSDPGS
Sequence of Prostaglandin G/H synthase 1 (P23219 whole entry): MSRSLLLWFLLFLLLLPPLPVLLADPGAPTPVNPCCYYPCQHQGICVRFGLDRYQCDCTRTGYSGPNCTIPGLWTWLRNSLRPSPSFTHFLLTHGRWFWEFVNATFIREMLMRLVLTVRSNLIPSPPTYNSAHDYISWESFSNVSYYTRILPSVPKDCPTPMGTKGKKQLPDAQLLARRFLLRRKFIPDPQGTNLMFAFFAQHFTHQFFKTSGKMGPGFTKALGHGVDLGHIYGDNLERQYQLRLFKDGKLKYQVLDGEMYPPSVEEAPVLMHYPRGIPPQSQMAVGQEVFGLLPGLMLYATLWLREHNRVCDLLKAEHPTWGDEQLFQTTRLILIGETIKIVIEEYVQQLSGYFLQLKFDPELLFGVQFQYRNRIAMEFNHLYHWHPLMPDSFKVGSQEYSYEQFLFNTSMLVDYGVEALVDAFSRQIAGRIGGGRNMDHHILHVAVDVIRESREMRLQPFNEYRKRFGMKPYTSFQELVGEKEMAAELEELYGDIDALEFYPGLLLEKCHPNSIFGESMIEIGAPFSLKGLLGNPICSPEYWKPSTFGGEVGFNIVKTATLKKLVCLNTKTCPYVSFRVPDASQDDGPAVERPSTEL

Consider `CNC(=O)Oc1cccc2ccccc12` [CARBARIL], for which the AC50 in assay [1], in assay [2], in assay [3], in [4], in assay [5] and in assay [6] was over 30 µM each time. The concentration at half-maximal activity (AC50) (usually the concentration at which the activity in the assay is half-maximal) was over 30 µM in assay [7]; over 30 µM in assay [8]; over 30 µM in assay [9]; 14.3 µM in assay [10]; 3.71 µM in assay [11]; over 30 µM in assay [12]. In [13], this molecule displayed an AC50 of over 30 µM.
Turning to `CCn1cc(C(=O)O)c(=O)c2cc3c(cc21)OCO3` [OXOLINIC ACID], the AC50 in [1], in assay [2], in assay [3], in assay [4], in assay [5] and in [6] was over 30 µM throughout. The AC50 in assay [7], in [8], in assay [9], in [10], in [11] and in assay [12] was over 30 µM each time. The molecule also gave an AC50 in assay [13] of over 30 µM.
As for `Nc1ccc(C(=O)Oc2ccccc2)c(O)c1` [PHENYL AMINOSALICYLATE], the concentration at half-maximal activity (AC50) in [1] is over 30 µM; in assay [2], 17.1 µM; in assay [3], over 30 µM; in assay [4], over 30 µM; in assay [5] it was over 30 µM; in assay [6], over 30 µM. Also, the half-maximal activity concentration (AC50) in assay [7] was over 30 µM; in [8] it was over 30 µM; in assay [9], over 30 µM; in [10] it was over 30 µM; in assay [11], over 30 µM; in assay [12] it was 0.235 µM. For the same molecule, the AC50 in assay [13] was over 30 µM.
With `FC(F)(F)c1ccc(CNc2ccc(Cc3c[nH]c4ncc(Cl)cc34)cn2)cn1` [PEXIDARTINIB], the AC50 in assay [1] was over 30 µM; in assay [2], 0.389 µM; in assay [3], 10.2 µM; in assay [4], over 30 µM; in assay [5], over 30 µM; in assay [6], over 30 µM. For the same molecule, the AC50 in assay [7] was 0.627 µM; in [8], 8.6 µM; in assay [9] it was over 30 µM; in assay [10], 9.95 µM; in assay [11] it was over 30 µM; in [12] it was 9.3 µM. The molecule also had a concentration at half-maximal activity (AC50) in assay [13] of over 30 µM.
For `O=C1/C(=C2\Nc3ccc(S(=O)(=O)O)cc3C2=O)Nc2ccc(S(=O)(=O)O)cc21` [INDIGOTINDISULFONATE], the concentration at half-maximal activity (AC50) was over 30 µM in assay [1]; over 30 µM in assay [2]; over 30 µM in assay [3]; 2.83 µM in assay [4]; over 30 µM in [5]; over 30 µM in assay [6]. In addition, the AC50 was over 30 µM in [7]; over 30 µM in [8]; over 30 µM in [9]; over 30 µM in assay [10]; 21.5 µM in assay [11]; over 30 µM in assay [12]. The molecule also displayed an AC50 in assay [13] of over 30 µM.
`O=C(O)c1cc(/N=N/c2ccc(O)c(C(=O)O)c2)ccc1O` [OLSALAZINE]: the concentration at half-maximal activity (AC50) in assay [1], in assay [2], in [3], in [4], in [5] and in assay [6] was over 30 µM in each case. Besides, the AC50 in [7], in [8], in assay [9], in assay [10], in assay [11] and in assay [12] was over 30 µM throughout. For the same molecule, in assay [13], the half-maximal activity concentration (AC50) was over 30 µM.
Turning to `CN1CCC(=C2c3ccccc3Sc3ccccc32)CC1` [PIMETHIXENE], the half-maximal activity concentration (AC50) was over 30 µM in [1]; 0.0216 µM in assay [2]; 0.0497 µM in assay [3]; over 30 µM in assay [4]; over 30 µM in assay [5]; over 30 µM in assay [6]. Besides, the half-maximal activity concentration (AC50) is 0.0145 µM in assay [7]; 3.9 µM in [8]; over 30 µM in assay [9]; over 30 µM in assay [10]; over 30 µM in assay [11]; 11.2 µM in assay [12]. The AC50 in assay [13] is over 30 µM.
Regarding `C=CCN1CC[C@]23CCCC[C@H]2[C@H]1Cc1ccc(O)cc13` [LEVALLORPHAN], the AC50 in [1] is 16.7 µM; in [2], over 30 µM; in assay [3], 23.4 µM; in assay [4] it was over 30 µM; in assay [5] it was over 30 µM; in assay [6], over 30 µM. The concentration at half-maximal activity (AC50) in assay [7] is 27.6 µM; in [8] it was 14 µM; in assay [9] it was over 30 µM; in assay [10], over 30 µM; in assay [11], over 30 µM; in [12], over 30 µM. Also, in assay [13], the half-maximal activity concentration (AC50) is over 30 µM.
Take `CC(C)C[C@H](NC(=O)CNC(=O)c1cc(Cl)ccc1Cl)B(O)O` [IXAZOMIB]: the concentration at half-maximal activity (AC50) in assay [1], in assay [2], in assay [3], in assay [4], in assay [5] and in assay [6] was over 30 µM each time. The concentration at half-maximal activity (AC50) in assay [7], in assay [8], in [9], in [10], in assay [11] and in [12] was over 30 µM in each case. In [13], the concentration at half-maximal activity (AC50) is over 30 µM.
Regarding `N[C@@H](CO)C(=O)O` [SERINE], the concentration at half-maximal activity (AC50) in [1], in assay [2], in assay [3], in [4], in [5] and in [6] was over 30 µM in each case. Moreover, the half-maximal activity concentration (AC50) in [7], in assay [8], in [9], in assay [10], in [11] and in [12] was over 30 µM each time. Also, in assay [13], the half-maximal activity concentration (AC50) was over 30 µM.
